Reference: PubChem BioAssay (NCI)
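Growth conditions: 96-well plates. Treatment: test compound, 48 hours, 5 concentrations. Analysis: linear interpolation between bracketing concentrations; unreached endpoints set to highest concentration. TGI marks complete inhibition of growth.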

Test system: HOP-92 NSCLC
Assay: NCI-60 cell line screen, 48 h

Row | Structure (SMILES) | TGI [µM]
1 | O=C1NN=C2C=C(c3ccc(Cl)cc3)CC(c3cccc(Br)c3)C12 (stereo unspecified) | 31.3
2 | COC(=O)C1(NC(=O)C(CC(=O)OCc2ccccc2)NC(=O)OCc2ccccc2)CCCCCCC1 (stereo unspecified) | > 100
3 | C=CCSc1nc2c(N)ncnc2n1C1OC(CO)C(O)C1O (stereo unspecified) | > 100

Test system: HS 578T breast
Assay: NCI-60 cell line screen, 48 h

Row | Structure (SMILES) | TGI [µM]
4 | C[n+]1cn(C2=C([O-])c3ccccc3C(=O)/C2=N\S(=O)(=O)c2ccccc2)c2ccccc21 | > 100
5 | Cc1nn(C(=O)c2ccccc2O)c2c1C(c1ccccc1O)SC(N)=N2 (stereo unspecified) | > 10
6 | O=C1NN=C2C=C(c3ccc(Cl)cc3)CC(c3cccc(Br)c3)C12 (stereo unspecified) | 68.1
7 | COC(=O)C1(NC(=O)C(CC(=O)OCc2ccccc2)NC(=O)OCc2ccccc2)CCCCCCC1 (stereo unspecified) | > 100
8 | C=CCSc1nc2c(N)ncnc2n1C1OC(CO)C(O)C1O (stereo unspecified) | > 100

Test system: HT29 colon
Assay: NCI-60 cell line screen, 48 h

Row | Structure (SMILES) | TGI [µM]
9 | C[n+]1cn(C2=C([O-])c3ccccc3C(=O)/C2=N\S(=O)(=O)c2ccccc2)c2ccccc21 | > 100
10 | Cc1nn(C(=O)c2ccccc2O)c2c1C(c1ccccc1O)SC(N)=N2 (stereo unspecified) | > 10
11 | O=C1NN=C2C=C(c3ccc(Cl)cc3)CC(c3cccc(Br)c3)C12 (stereo unspecified) | > 100
12 | COC(=O)C1(NC(=O)C(CC(=O)OCc2ccccc2)NC(=O)OCc2ccccc2)CCCCCCC1 (stereo unspecified) | > 100
13 | C=CCSc1nc2c(N)ncnc2n1C1OC(CO)C(O)C1O (stereo unspecified) | > 100

Test system: IGROV1 ovarian
Assay: NCI-60 cell line screen, 48 h

Row | Structure (SMILES) | TGI [µM]
14 | C[n+]1cn(C2=C([O-])c3ccccc3C(=O)/C2=N\S(=O)(=O)c2ccccc2)c2ccccc21 | 87.3
15 | Cc1nn(C(=O)c2ccccc2O)c2c1C(c1ccccc1O)SC(N)=N2 (stereo unspecified) | > 10
16 | O=C1NN=C2C=C(c3ccc(Cl)cc3)CC(c3cccc(Br)c3)C12 (stereo unspecified) | > 100
17 | COC(=O)C1(NC(=O)C(CC(=O)OCc2ccccc2)NC(=O)OCc2ccccc2)CCCCCCC1 (stereo unspecified) | > 100
18 | C=CCSc1nc2c(N)ncnc2n1C1OC(CO)C(O)C1O (stereo unspecified) | > 100

Test system: K-562 leukemia
Assay: NCI-60 cell line screen, 48 h

Row | Structure (SMILES) | TGI [µM]
19 | C[n+]1cn(C2=C([O-])c3ccccc3C(=O)/C2=N\S(=O)(=O)c2ccccc2)c2ccccc21 | > 100
20 | Cc1nn(C(=O)c2ccccc2O)c2c1C(c1ccccc1O)SC(N)=N2 (stereo unspecified) | > 10
21 | O=C1NN=C2C=C(c3ccc(Cl)cc3)CC(c3cccc(Br)c3)C12 (stereo unspecified) | > 100
22 | COC(=O)C1(NC(=O)C(CC(=O)OCc2ccccc2)NC(=O)OCc2ccccc2)CCCCCCC1 (stereo unspecified) | > 100
23 | C=CCSc1nc2c(N)ncnc2n1C1OC(CO)C(O)C1O (stereo unspecified) | > 100

Test system: KM12 colon
Assay: NCI-60 cell line screen, 48 h

Row | Structure (SMILES) | TGI [µM]
24 | C[n+]1cn(C2=C([O-])c3ccccc3C(=O)/C2=N\S(=O)(=O)c2ccccc2)c2ccccc21 | > 100
25 | Cc1nn(C(=O)c2ccccc2O)c2c1C(c1ccccc1O)SC(N)=N2 (stereo unspecified) | > 10
26 | O=C1NN=C2C=C(c3ccc(Cl)cc3)CC(c3cccc(Br)c3)C12 (stereo unspecified) | > 100
27 | COC(=O)C1(NC(=O)C(CC(=O)OCc2ccccc2)NC(=O)OCc2ccccc2)CCCCCCC1 (stereo unspecified) | > 100
28 | C=CCSc1nc2c(N)ncnc2n1C1OC(CO)C(O)C1O (stereo unspecified) | > 100

Test system: LOX IMVI melanoma
Assay: NCI-60 cell line screen, 48 h

Row | Structure (SMILES) | TGI [µM]
29 | C[n+]1cn(C2=C([O-])c3ccccc3C(=O)/C2=N\S(=O)(=O)c2ccccc2)c2ccccc21 | 76.4
30 | Cc1nn(C(=O)c2ccccc2O)c2c1C(c1ccccc1O)SC(N)=N2 (stereo unspecified) | > 10
31 | O=C1NN=C2C=C(c3ccc(Cl)cc3)CC(c3cccc(Br)c3)C12 (stereo unspecified) | > 100
32 | COC(=O)C1(NC(=O)C(CC(=O)OCc2ccccc2)NC(=O)OCc2ccccc2)CCCCCCC1 (stereo unspecified) | > 100
33 | C=CCSc1nc2c(N)ncnc2n1C1OC(CO)C(O)C1O (stereo unspecified) | > 100

Test system: M14 melanoma
Assay: NCI-60 cell line screen, 48 h

Row | Structure (SMILES) | TGI [µM]
34 | C[n+]1cn(C2=C([O-])c3ccccc3C(=O)/C2=N\S(=O)(=O)c2ccccc2)c2ccccc21 | 48.3
35 | Cc1nn(C(=O)c2ccccc2O)c2c1C(c1ccccc1O)SC(N)=N2 (stereo unspecified) | > 10
36 | O=C1NN=C2C=C(c3ccc(Cl)cc3)CC(c3cccc(Br)c3)C12 (stereo unspecified) | > 100
37 | COC(=O)C1(NC(=O)C(CC(=O)OCc2ccccc2)NC(=O)OCc2ccccc2)CCCCCCC1 (stereo unspecified) | > 100
38 | C=CCSc1nc2c(N)ncnc2n1C1OC(CO)C(O)C1O (stereo unspecified) | > 100

Test system: MALME-3M melanoma
Assay: NCI-60 cell line screen, 48 h

Row | Structure (SMILES) | TGI [µM]
39 | C[n+]1cn(C2=C([O-])c3ccccc3C(=O)/C2=N\S(=O)(=O)c2ccccc2)c2ccccc21 | 5.88
40 | Cc1nn(C(=O)c2ccccc2O)c2c1C(c1ccccc1O)SC(N)=N2 (stereo unspecified) | > 10
41 | O=C1NN=C2C=C(c3ccc(Cl)cc3)CC(c3cccc(Br)c3)C12 (stereo unspecified) | > 100
42 | C=CCSc1nc2c(N)ncnc2n1C1OC(CO)C(O)C1O (stereo unspecified) | > 100

Test system: MCF7 breast
Assay: NCI-60 cell line screen, 48 h

Row | Structure (SMILES) | TGI [µM]
43 | C[n+]1cn(C2=C([O-])c3ccccc3C(=O)/C2=N\S(=O)(=O)c2ccccc2)c2ccccc21 | > 100
44 | Cc1nn(C(=O)c2ccccc2O)c2c1C(c1ccccc1O)SC(N)=N2 (stereo unspecified) | > 10
45 | O=C1NN=C2C=C(c3ccc(Cl)cc3)CC(c3cccc(Br)c3)C12 (stereo unspecified) | > 100
46 | COC(=O)C1(NC(=O)C(CC(=O)OCc2ccccc2)NC(=O)OCc2ccccc2)CCCCCCC1 (stereo unspecified) | > 100
47 | C=CCSc1nc2c(N)ncnc2n1C1OC(CO)C(O)C1O (stereo unspecified) | > 100

Test system: MDA-MB-231 breast
Assay: NCI-60 cell line screen, 48 h

Row | Structure (SMILES) | TGI [µM]
48 | C[n+]1cn(C2=C([O-])c3ccccc3C(=O)/C2=N\S(=O)(=O)c2ccccc2)c2ccccc21 | > 100
49 | Cc1nn(C(=O)c2ccccc2O)c2c1C(c1ccccc1O)SC(N)=N2 (stereo unspecified) | > 10
50 | O=C1NN=C2C=C(c3ccc(Cl)cc3)CC(c3cccc(Br)c3)C12 (stereo unspecified) | > 100
51 | COC(=O)C1(NC(=O)C(CC(=O)OCc2ccccc2)NC(=O)OCc2ccccc2)CCCCCCC1 (stereo unspecified) | > 100
52 | C=CCSc1nc2c(N)ncnc2n1C1OC(CO)C(O)C1O (stereo unspecified) | > 100

Test system: MDA-MB-435
Assay: NCI-60 cell line screen, 48 h

Row | Structure (SMILES) | TGI [µM]
53 | C[n+]1cn(C2=C([O-])c3ccccc3C(=O)/C2=N\S(=O)(=O)c2ccccc2)c2ccccc21 | 6.34
54 | Cc1nn(C(=O)c2ccccc2O)c2c1C(c1ccccc1O)SC(N)=N2 (stereo unspecified) | > 10
55 | O=C1NN=C2C=C(c3ccc(Cl)cc3)CC(c3cccc(Br)c3)C12 (stereo unspecified) | > 100
56 | COC(=O)C1(NC(=O)C(CC(=O)OCc2ccccc2)NC(=O)OCc2ccccc2)CCCCCCC1 (stereo unspecified) | > 100
57 | C=CCSc1nc2c(N)ncnc2n1C1OC(CO)C(O)C1O (stereo unspecified) | > 100

Test system: MDA-N
Assay: NCI-60 cell line screen, 48 h

Row | Structure (SMILES) | TGI [µM]
58 | C[n+]1cn(C2=C([O-])c3ccccc3C(=O)/C2=N\S(=O)(=O)c2ccccc2)c2ccccc21 | 26.6
59 | Cc1nn(C(=O)c2ccccc2O)c2c1C(c1ccccc1O)SC(N)=N2 (stereo unspecified) | > 10
60 | O=C1NN=C2C=C(c3ccc(Cl)cc3)CC(c3cccc(Br)c3)C12 (stereo unspecified) | > 100
61 | COC(=O)C1(NC(=O)C(CC(=O)OCc2ccccc2)NC(=O)OCc2ccccc2)CCCCCCC1 (stereo unspecified) | > 100
62 | C=CCSc1nc2c(N)ncnc2n1C1OC(CO)C(O)C1O (stereo unspecified) | > 100

Test system: MOLT-4 leukemia
Assay: NCI-60 cell line screen, 48 h

Row | Structure (SMILES) | TGI [µM]
63 | C[n+]1cn(C2=C([O-])c3ccccc3C(=O)/C2=N\S(=O)(=O)c2ccccc2)c2ccccc21 | > 100
64 | Cc1nn(C(=O)c2ccccc2O)c2c1C(c1ccccc1O)SC(N)=N2 (stereo unspecified) | > 10
65 | O=C1NN=C2C=C(c3ccc(Cl)cc3)CC(c3cccc(Br)c3)C12 (stereo unspecified) | > 100
66 | COC(=O)C1(NC(=O)C(CC(=O)OCc2ccccc2)NC(=O)OCc2ccccc2)CCCCCCC1 (stereo unspecified) | > 100
67 | C=CCSc1nc2c(N)ncnc2n1C1OC(CO)C(O)C1O (stereo unspecified) | > 100

Test system: NCI-H226 lung
Assay: NCI-60 cell line screen, 48 h

Row | Structure (SMILES) | TGI [µM]
68 | C[n+]1cn(C2=C([O-])c3ccccc3C(=O)/C2=N\S(=O)(=O)c2ccccc2)c2ccccc21 | > 100
69 | Cc1nn(C(=O)c2ccccc2O)c2c1C(c1ccccc1O)SC(N)=N2 (stereo unspecified) | 8.96
70 | O=C1NN=C2C=C(c3ccc(Cl)cc3)CC(c3cccc(Br)c3)C12 (stereo unspecified) | > 100
71 | COC(=O)C1(NC(=O)C(CC(=O)OCc2ccccc2)NC(=O)OCc2ccccc2)CCCCCCC1 (stereo unspecified) | 90.9
